Laboratory results from patent publication US8183262B2, “Pyridine derivatives as mGluR2 antagonists” (Hoffmann-La Roche Inc., priority 2007, dated 2012).

Row | SMILES | melting point [°C]
1 | Nc1ccc(-c2cn(-c3nc(-c4ccc(Cl)cc4)cc(C4CC4)n3)cn2)cn1 [Example 49, 5-{1-[4-(4-Chloro-phenyl)-6-cyclopropyl-pyrimidin-2-yl]-1H-imidazol-4-yl}-pyridin-2-ylamine] | 220 to 222
2 | Clc1ccc(-c2cc(C3CC3)nc(-n3cnc(-c4cccnc4)c3)n2)cc1 [Example 50, 4-(4-Chloro-phenyl)-6-cyclopropyl-2-(4-pyridin-3-yl-imidazol-1-yl)-pyrimidine] | 180 to 182
3 | Nc1ncc(-c2cn(-c3nc(-c4ccc(Cl)cc4)cc(C4CC4)n3)cn2)cn1 [Example 51, 5-{1-[4-(4-Chloro-phenyl)-6-cyclopropyl-pyrimidin-2-yl]-1H-imidazol-4-yl}-pyrimidin-2-ylamine] | 238 to 240
4 | Nc1ccc(-c2cn(-c3nccc(-c4ccc(Cl)cc4)n3)cn2)cn1 [Example 52, 5-{1-[4-(4-Chloro-phenyl)-pyrimidin-2-yl]-1H-imidazol-4-yl}-pyridin-2-ylamine] | 188 to 190
5 | Nc1ccc(-c2cn(-c3nc(-c4cccc(C(F)(F)F)c4)cc(C(F)(F)F)n3)cn2)cn1 [Example 53, 5-{1-[4-Trifluoromethyl-6-(3-trifluoromethyl-phenyl)-pyrimidin-2-yl]-1H-imidazol-4-yl}-pyridin-2-ylamine] | 262
6 | Cc1cc(-c2ccc(C(F)(F)F)cc2)cc(-n2cnc(-c3ccc(N)nc3)c2)n1 [Example 58, 5-{1-[6-Methyl-4-(4-trifluoromethyl-phenyl)-pyridin-2-yl]-1H-imidazol-4-yl}-pyridin-2-ylamine] | 224 to 226
7 | Nc1ccc(-c2cccc(-c3cc(-c4ccc(C(F)(F)F)cc4)cc(C4CC4)n3)c2)cn1 [Example 64, 5-{3-[6-Cyclopropyl-4-(4-trifluoromethyl-phenyl)-pyridin-2-yl]-phenyl}-pyridin-2-ylamine] | 130 to 135
8 | Nc1ncc(-c2cn(-c3cc(C(F)(F)F)cc(-c4ccc(C(F)(F)F)cc4)n3)cn2)cn1 [Example 66, 5-{1-[4-Trifluoromethyl-6-(4-trifluoromethyl-phenyl)-pyridin-2-yl]-1H-imidazol-4-yl}-pyrimidin-2-ylamine] | > 250
9 | Cc1cc(-c2ccc(C(F)(F)F)cc2)cc(-c2cncc(-c3ccc(N)nc3)c2)n1 [Example 67, 6-Methyl-4-(4-trifluoromethyl-phenyl)-[2,3′;5′,3″]terpyridin-6″-ylamine] | 161 to 177
10 | Cc1cc(-c2ccc(C(F)(F)F)cc2)cc(-c2cncc(-c3cnc(N)nc3)c2)n1 [Example 68, 5-[6-Methyl-4-(4-trifluoromethyl-phenyl)-[2,3′]bipyridinyl-5′-yl]-pyrimidin-2-ylamine] | 248 to 252
11 | Nc1ccc(-c2cncc(-c3cc(-c4ccc(C(F)(F)F)cc4)cc(C4CC4)n3)c2)cn1 [Example 69, 6-Cyclopropyl-4-(4-trifluoromethyl-phenyl)-[2,3′;5′,3″]terpyridin-6″-ylamine] | 207 to 209
12 | Cc1cc(-c2ccc(C(F)(F)F)cc2)cc(-c2ccnc(-c3cnc(N)nc3)c2)n1 [Example 76, 5-[6-Methyl-4-(4-trifluoromethyl-phenyl)-[2,4′]bipyridinyl-2′-yl]-pyrimidin-2-ylamine] | > 245
13 | Nc1ccc(-c2cc(-c3cc(-c4ccc(C(F)(F)F)cc4)cc(C4CC4)n3)ccn2)cn1 [Example 77, 6-Cyclopropyl-4-(4-trifluoromethyl-phenyl)-[2,4′;2′,3″]terpyridin-6″-ylamine] | 172 to 174
14 | Nc1ncc(-c2cc(-c3cc(-c4ccc(C(F)(F)F)cc4)cc(C4CC4)n3)ccn2)cn1 [Example 78, 5-[6-Cyclopropyl-4-(4-trifluoromethyl-phenyl)-[2,4′]bipyridinyl-2′-yl]-pyrimidin-2-ylamine] | 242 to 245
15 | Cc1cc(-c2ccc(C(F)(F)F)cc2)cc(-c2cccc(-c3ccncc3)c2)n1 [Example 79, 2-Methyl-6-(3-pyridin-4-yl-phenyl)-4-(4-trifluoromethyl-phenyl)-pyridine] | 143 to 147
16 | Cc1cc(-c2ccc(Cl)cc2)cc(-n2cnc(-c3ccc(N)nc3)c2)n1 [Example 80, 5-{1-[4-(4-Chloro-phenyl)-6-methyl-pyridin-2-yl]-1H-imidazol-4-yl}-pyridin-2-ylamine] | 230 to 233
17 | Cc1cc(-c2ccc(Cl)cc2)cc(-c2cncc(-c3ccc(N)nc3)c2)n1 [Example 81, 4-(4-Chloro-phenyl)-6-methyl-[2,3′;5′,3″]terpyridin-6″-ylamine] | 188 to 192
18 | Cc1cc(-c2ccc(Cl)cc2)cc(-c2cccc(-c3cnc(N)nc3)c2)n1 [Example 82, 5-{3-[4-(4-Chloro-phenyl)-6-methyl-pyridin-2-yl]-phenyl}-pyrimidin-2-ylamine] | 197 to 199

Row | SMILES | melting point [°C]
19 | NS(=O)(=O)c1cccc(-c2cccc(-c3cc(C(F)(F)F)cc(-c4ccc(C(F)(F)F)cc4)n3)c2)c1 [Example 83, 3′-[4-Trifluoromethyl-6-(4-trifluoromethyl-phenyl)-pyridin-2-yl]-biphenyl-3-sulfonic acid amide] | 176 to 179
20 | FC(F)(F)c1cc(-c2ccc(Cl)cc2)nc(-c2ccnc(-c3cccnc3)c2)n1 [Example 84, 4-[4-(4-Chloro-phenyl)-6-trifluoromethyl-pyrimidin-2-yl]-[2,3]bipyridinyl] | 226
21 | FC(F)(F)c1ccc(-c2cc(C(F)(F)F)nc(-c3ccnc(-c4cccnc4)c3)n2)cc1 [Example 85, 4-[4-Trifluoromethyl-6-(4-trifluoromethyl-phenyl)-pyrimidin-2-yl]-[2,3′]bipyridinyl] | 247
22 | FC(F)(F)c1cc(-c2ccc(Cl)cc2)nc(-c2ccnc(-c3ccncc3)c2)n1 [Example 86, 4-[4-(4-Chloro-phenyl)-6-trifluoromethyl-pyrimidin-2-yl]-[2,4′]bipyridinyl] | 193
23 | CCOc1cc(-c2cc(C(F)(F)F)nc(-n3cnc(-c4ccc(N)nc4)c3)n2)ccc1C(F)(F)F [Example 87, 5-{1-[4-(3-Ethoxy-4-trifluoromethyl-phenyl)-6-trifluoromethyl-pyrimidin-2-yl]-1H-imidazol-4-yl}-pyridin-2-ylamine] | 266.5
24 | Nc1ccc(-c2cc(-c3nc(-c4ccc(C(F)(F)F)cc4)cc(C(F)F)n3)ccn2)cn1 [Example 88, 4-[4-Difluoromethyl-6-(4-trifluoromethyl-phenyl)-pyrimidin-2-yl]-[2,3′]bipyridinyl-6′-ylamine] | 210
25 | CCOc1cc(-c2cc(C(F)(F)F)nc(-c3nc(-c4ccc(S(N)(=O)=O)cc4)no3)n2)ccc1C(F)(F)F [Example 89, 4-{5-[4-(3-Ethoxy-4-trifluoromethyl-phenyl)-6-trifluoromethyl-pyrimidin-2-yl]-[1,2,4]oxadiazol-3-yl}-benzenesulfonamide] | 250.5
26 | CCOc1cc(-c2cc(C(F)(F)F)nc(-c3nc(-c4cccc(S(N)(=O)=O)c4)no3)n2)ccc1C(F)(F)F [Example 91, 3-{5-[4-(3-Ethoxy-4-trifluoromethyl-phenyl)-6-trifluoromethyl-pyrimidin-2-yl]-[1,2,4]oxadiazol-3-yl}-benzenesulfonamide] | 227
27 | CCOc1cc(-c2cc(C(F)(F)F)nc(-c3ccnc(-c4ccc(N)nc4)c3)n2)ccc1C(F)(F)F [Example 92, 4-[4-(3-Ethoxy-4-trifluoromethyl-phenyl)-6-trifluoromethyl-pyrimidin-2-yl]-[2,3′]bipyridinyl-6′-ylamine] | 222
28 | CCOc1cc(-c2cc(C(F)(F)F)nc(-c3cccc(-c4ccc(N)nc4)c3)n2)ccc1C(F)(F)F [Example 93, 5-{3-[4-(3-Ethoxy-4-trifluoromethyl-phenyl)-6-trifluoromethyl-pyrimidin-2-yl]-phenyl}-pyridin-2-ylamine] | 208
29 | Nc1ccc(-c2cn(-c3nc(-c4ccc(C(F)(F)F)c(F)c4)cc(C(F)(F)F)n3)cn2)cn1 [Example 94, 5-{1-[4-(3-Fluoro-4-trifluoromethyl-phenyl)-6-trifluoromethyl-pyrimidin-2-yl]-1H-imidazol-4-yl}-pyridin-2-ylamine] | 309
30 | CC(=O)Nc1ccc(-c2cn(-c3nc(-c4ccc(C(F)(F)F)cc4)cc(C(F)(F)F)n3)cn2)cn1 [Example 95, N-(5-{1-[4-Trifluoromethyl-6-(4-trifluoromethyl-phenyl)-pyrimidin-2-yl]-1H-imidazol-4-yl}-pyridin-2-yl)-acetamide] | 314
31 | Nc1ccc(-c2cccc(-c3nc(-c4ccc(C(F)(F)F)c(F)c4)cc(C(F)(F)F)n3)c2)cn1 [Example 96, 5-{3-[4-(3-Fluoro-4-trifluoromethyl-phenyl)-6-trifluoromethyl-pyrimidin-2-yl]-phenyl}-pyridin-2-ylamine] | 212
32 | Nc1ccc(-c2cccc(-c3nc(-c4ccc(Cl)c(Cl)c4)cc(C(F)(F)F)n3)c2)cn1 [Example 97, 5-{3-[4-(3,4-Dichloro-phenyl)-6-trifluoromethyl-pyrimidin-2-yl]-phenyl}-pyridin-2-ylamine] | 179
33 | NS(=O)(=O)c1ccc(-c2noc(-c3nc(-c4ccc(Cl)c(Cl)c4)cc(C(F)(F)F)n3)n2)cc1 [Example 98, 4-{5-[4-(3,4-Dichloro-phenyl)-6-trifluoromethyl-pyrimidin-2-yl]-[1,2,4]oxadiazol-3-yl}-benzenesulfonamide] | 302.5
34 | NS(=O)(=O)c1cccc(-c2noc(-c3nc(-c4ccc(Cl)c(Cl)c4)cc(C(F)(F)F)n3)n2)c1 [Example 99, 3-{5-[4-(3,4-Dichloro-phenyl)-6-trifluoromethyl-pyrimidin-2-yl]-[1,2,4]oxadiazol-3-yl}-benzenesulfonamide] | 258
35 | Nc1ccc(-c2noc(-c3nc(-c4ccc(Cl)c(Cl)c4)cc(C(F)(F)F)n3)n2)cn1 [Example 100, 5-{5-[4-(3,4-Dichloro-phenyl)-6-trifluoromethyl-pyrimidin-2-yl]-[1,2,4]oxadiazol-3-yl}-pyridin-2-ylamine] | 227
36 | Nc1ccc(-c2nccc(-c3nc(-c4ccc(C(F)(F)F)cc4)cc(C(F)(F)F)n3)n2)cn1 [Example 101, 5-[6-Trifluoromethyl-4-(4-trifluoromethyl-phenyl)-[2,4′]bipyrimidinyl-2′-yl]-pyridin-2-ylamine] | 236.5
